Measurements published in patent US20250352500A1, “USE OF PHENOLIC ACIDS DERIVATIVES IN TREATING ISCHEMIC STROKE” (LANZHOU UNIVERSITY, priority 2022, published 2025).

Experiments:
Format in all cases: in vivo, male C57/BL mice
MCAO model mice = assay: Body weight change after ischemia-reperfusion
Description: (§1) Grouping and administration method: Male C57/BL mice weighing 23±1 g were randomly divided into sham operation group (SHAM), model group (MCAO), compound 2 group (100 mg/kg), and compound 1 group (50 mg/kg), with 10 mice in each group. Mice in the SHAM group underwent vascular isolation, but no […] was administered, and no treatment was given before or after surgery. The model group mice were constructed with MCAO models and were not treated before and after surgery. The treatment group was treated with compound 2 or compound 1 on the basis of the model group. Mice with a neurological score of 0 after reperfusion and those that died before 72 hours post-surgery were excluded. The administration time for animal behavior tests was seven times at 0 h, 1 day, 2 days, 3 days, 4 days, 5 days, and 6 days after reperfusion, while the administration time for other experiments was three times at 0 h, 1 day, and 2 days after reperfusion. The drug was administered through the tail vein, and the sham operation group and model group were given equal amounts of saline.
At the same time, the weight change and survival rate of mice after ischemia-reperfusion were analyzed.

iNOS = assay: RT-qPCR of iNOS mRNA in brain tissue; conditions: 72 h, three days of administration, compound 2 100 mg/kg, compound 1 50 mg/kg, P<0.05
Description: as §1, with “The administration time for animal behavior tests was seven times at 0 h, 1 day, 2 days, 3 days, 4 days, 5 days, and 6 days after reperfusion, while the administration time for other experiments was three times at 0 h, 1 day, and 2 days after reperfusion. The drug was administered through the tail vein, and the sham operation group and model group were given equal amounts of saline.” left out
(§2) To investigate the effect of compounds on the expression of inflammatory factors after ischemia-reperfusion, this study used immunofluorescence experiments to observe the expression of TNF-α, IL-1β, IL-6, iNOS, and COX2 proteins in brain tissue. […] The concentrations of TNF-α, IL-1β, and IL-6 in brain homogenate were detected by enzyme-linked immunosorbent assay (ELISA), and the expression level of TNF-α protein in brain tissue was detected by Western blot.
(§3) After 72 hours of ischemia-reperfusion, the mRNA expression levels of TNF-α, IL-1β, IL-6, iNOS, and COX2 in brain tissue were detected and analyzed by RT-qPCR. […]

[1] = system: TNF-α, IL-1β, IL-6, iNOS, and COX2; assay: Immunofluorescence of pro-inflammatory factors in brain tissue; conditions: 72 h, P<0.001; for Number of pro-inflammatory factor-positive cells compared with MCAO group: three days of administration, compound 2 100 mg/kg, compound 1 50 mg/kg
Description: as §1
To investigate the effect of compounds on the expression of inflammatory factors after ischemia-reperfusion, this study used immunofluorescence experiments to observe the expression of TNF-α, IL-1β, IL-6, iNOS, and COX2 proteins in brain tissue. RT-qPCR experiments were used to detect the mRNA gene expression of pro-inflammatory factors TNF-α, IL-1β, IL-6, iNOS, and COX2 in the sham operation group, model group, compound 2 group, and compound 1 group. The concentrations of TNF-α, IL-1β, and IL-6 in brain homogenate were detected by enzyme-linked immunosorbent assay (ELISA), and the expression level of TNF-α protein in brain tissue was detected by Western blot.
After 72 hours of ischemia-reperfusion, the expression changes of inflammatory factors such as TNF-α, IL-1β, IL-6, iNOS, and COX2 in brain regions were analyzed by immunofluorescence staining. […]

iba1 = iba1 immunofluorescence in brain tissue (microglia); conditions: 72 h ischemia-reperfusion, three days of administration; compound 2 100 mg/kg, compound 1 50 mg/kg; MCAO group 303±23; mean±SEM, n=3
Description: as §1, with “The administration time for animal behavior tests was seven times at 0 h, 1 day, 2 days, 3 days, 4 days, 5 days, and 6 days after reperfusion, while the administration time for other experiments was three times at 0 h, 1 day, and 2 days after reperfusion. The drug was administered through the tail vein, and the sham operation group and model group were given equal amounts of saline.” left out
Microglia are resident phagocytic cells in the nervous system and are the primary defense system for stress and injury in central nervous cells. […] To investigate whether the compound has an effect on the activation and proliferation of microglia in the ischemia-reperfusion model, this study used immunofluorescence experiments to detect the fluorescence expression of iba1 in the brain tissues of the sham operation group (SHAM), model group (MCAO), compound 2 group, and compound 1 group. Then, the expression level of iba1 in microglia in brain tissue was detected by Western blot. […]

HIF-1α = HIF-1α immunofluorescence in brain tissue; conditions: 72 h ischemia-reperfusion, three days of administration; compound 2 100 mg/kg, compound 1 50 mg/kg; MCAO group 568±60; mean±SEM, n=3
Description: as §1, with “The administration time for animal behavior tests was seven times at 0 h, 1 day, 2 days, 3 days, 4 days, 5 days, and 6 days after reperfusion, while the administration time for other experiments was three times at 0 h, 1 day, and 2 days after reperfusion. The drug was administered through the tail vein, and the sham operation group and model group were given equal amounts of saline.” left out
After 72 hours of ischemia-reperfusion, the expression changes of the inflammatory factor HIF-1α in the brain region were analyzed by immunofluorescence staining. […] Compared with the compound 1 group, the number of HIF-1α-positive cells in the compound 2 group was lower (197±33 vs 250±54/mm^2, P<0.001). n=3, data are presented as mean±SEM, analyzed using one-way ANOVA, and subjected to Tukey's HSD test. *P<0.05, **P<0.01, ***P<0.001. ^#P<0.05, ^##P<0.01, ^###P<0.001. * indicates a comparison with the MCAO group, ^# indicates comparison with the compound 2 group.

TNF-α = assay: RT-qPCR of TNF-α mRNA in brain tissue; conditions: 72 h, three days of administration, compound 2 100 mg/kg, compound 1 50 mg/kg, P<0.05
Description: as §1, with “The administration time for animal behavior tests was seven times at 0 h, 1 day, 2 days, 3 days, 4 days, 5 days, and 6 days after reperfusion, while the administration time for other experiments was three times at 0 h, 1 day, and 2 days after reperfusion. The drug was administered through the tail vein, and the sham operation group and model group were given equal amounts of saline.” left out
as §2, §3

O=C(O)c1cc(O)ccc1O [compound 1]
Body weight compared with the compound 2 group (MCAO model mice; 7th day after reperfusion, compound 1 50 mg/kg vs compound 2 100 mg/kg, P<0.05): significantly decreased
iNOS mRNA expression compared with MCAO group (iNOS): significantly reduced
Number of pro-inflammatory factor-positive cells compared with MCAO group [1]: significantly decreased
Number of iba1-positive cells (iba1): 200±12 /mm^2
Number of HIF-1α-positive cells (HIF-1α): 250±54 /mm^2
TNF-α mRNA expression compared with MCAO group (TNF-α): significantly reduced

O=C(O)c1cc(OP(=O)(O)O)ccc1OP(=O)(O)O [compound 2]
Body weight compared with MCAO group (MCAO model mice; 7th day of reperfusion, 100 mg/kg tail vein): inhibited the decrease in body weight
iNOS mRNA expression compared with MCAO group (iNOS): significantly reduced
Density of pro-inflammatory factor-positive cells compared with the compound 1 group ([1]; compound 2 100 mg/kg vs compound 1 50 mg/kg): significantly reduced
Number of pro-inflammatory factor-positive cells compared with MCAO group [1]: significantly decreased
Number of iba1-positive cells (iba1): 148±40 /mm^2
Number of HIF-1α-positive cells (HIF-1α): 197±33 /mm^2
TNF-α mRNA expression compared with MCAO group (TNF-α): significantly reduced
